Measurements: patent US12128034B2, “Combinations of beta-lactam compounds, probenecid, and valproic acid and uses thereof” (Iterum Therapeutics International Limited, priority 2020, dated 2024)
Values belong to the compound of their own block, whether it stands above or below them.

What was measured:
[1] = may result in loss of seizure control; cited from earlier work
[2] = clinical; details: in vivo; for AUC(0-t): AUC0-t; for AUC: AUC0-tau
Experimental: For Cohorts 2 and 3, all patients were administered valproic acid daily. Starting on the fifth day, Cohort 3 was administered the sulopenem etzadroxil tablet (“Etzadroxil Tablet”) alone and Cohort 2 was administered the bilayer tablet of sulopenem etzadroxil and probenecid (500 mg sulopenem etzadroxil+500 mg probenecid film-coated bilayer tablet; “Bilayer Tablet”).

[3] = system: Porphyromonas gingivalis; details: Ednie and Appelbaum 2009; cited from earlier work
[4] = in vivo
[5] = Dacey and Sande 1974; cited from earlier work

effect on the steady-state pharmacokinetic profile of valproic acid [2]: weak effect
Structure (SMILES): C[C@@H](O)[C@H]1C(=O)N2C(C(=O)O)=C(S[C@H]3CC[S@@+]([O-])C3)S[C@H]12 [sulopenem]
activity against Porphyromonas gingivalis [3]: active
tolerability and safety [4]: well tolerated and safe

tlast, Mean (SD) ([2]; male, human): 11.920 (0.0000) h
AUC0-t, Mean (SD) ([2]; male, human, po): 570.83 (122.096) h · μg/mL
AUC0-tau, Mean (SD) ([2]; male, human, po): 554.71 (140.804) h · μg/mL
Tmax ([2]; male, human, po): 4 h
tmax, Median (min, max) ([2]; male, human, po): 4.000 (2.00, 5.00) h
AUC(0-t) ([2]; male, human, po, GM (CV %)): 517 µg·h/mL
AUC(0-t) ([2]; male, human, po, Mean (SD)): 522 µg·h/mL
AUC ([2]; male, human, po, GM (CV %)): 518 µg·h/mL
AUC ([2]; male, human, po, Mean (SD)): 522 µg·h/mL
Structure (SMILES): CCCC(CCC)C(=O)O [VPA, valproic acid]
tolerability and safety [4]: well tolerated and safe

time at which the impact of probenecid on valproic acid bioavailability can occur ([2]; human): as early as three days
Structure (SMILES): CCCN(CCC)S(=O)(=O)c1ccc(C(=O)O)cc1 [probenecid]
concentrations of β-lactam compounds in the cerebrospinal fluid [5]: increase

The remaining lines, values behind:

Structure (SMILES): C[C@@H](O)[C@H]1C(=O)N2C(C(=O)O)=C(S[C@@H]3CN[C@H](C(=O)N(C)C)C3)[C@H](C)[C@H]12 [meropenem]
serum valproic acid concentration in patients receiving carbapenem antibiotics [1]: clinically significant reduction

Structure (SMILES): C[C@@H](O)[C@H]1C(=O)N2C(C(=O)O)=C(S[C@@H]3CN[C@H](C(=O)Nc4cccc(C(=O)O)c4)C3)[C@H](C)[C@H]12 [ertapenem]
serum valproic acid concentration in patients receiving carbapenem antibiotics [1]: clinically significant reduction

Structure (SMILES): C[C@@H](O)[C@H]1C(=O)N2C(C(=O)O)=C(SCCN=CN)C[C@H]12 [imipenem]
serum valproic acid concentration in patients receiving carbapenem antibiotics [1]: clinically significant reduction
